pIC50: −log10 of the molar value. Activity calls are given as the source filed them. The calls are words filed in the database; no cut-off is given here.
Experiments:
Bel-7402 [1] = test: Antiproliferative activity against human Bel7402 cells assessed as reduction in cell viability preincubated for 5 hrs followed by compound washout and subsequent 3 mW/cm2 UVA irradiation for 20 mins measured 48 hrs post irradiation by CCK8 assay; assay type: functional, cell-based; settings: Bel-7402, light or radiation study
A-375 [2] = test: Dark toxicity against human A375 cells up to 500 nM preincubated for 5 hrs followed by compound washout and measured after 48 hrs by CCK8 assay; assay type: cell-based; settings: a-375, 48 h
Bel-7402 [3] = test: Dark toxicity against human Bel7402 cells up to 500 nM incubated for 5 hrs followed by compound washout and measured after 48 hrs by CCK8 assay; assay type: cell-based; settings: bel-7402, 5 h
H22 [4] = test: Dark toxicity against mouse H22 cells up to 500 nM preincubated for 5 hrs followed by compound washout and measured after 48 hrs by CCK8 assay; assay type: cell-based; settings: h22, 48 h
H22 [5] = test: Antiproliferative activity against mouse H22 cells assessed as reduction in cell viability preincubated for 5 hrs followed by compound washout and subsequent 2 mW/cm2 UVA irradiation measured 48 hrs post irradiation by CCK8 assay; assay type: functional, cell-based; settings: H22, light or radiation study
A-375 [6] = test: Antiproliferative activity against human A375 cells assessed as reduction in cell viability preincubated for 5 hrs followed by compound washout and subsequent 3 mW/cm2 UVA irradiation measured 48 hrs post irradiation by CCK8 assay; assay type: functional, cell-based; settings: A-375, light or radiation study
MCF7 [7] = test: Dark toxicity against human MCF7 cells up to 500 nM preincubated for 5 hrs followed by compound washout and measured after 48 hrs by CCK8 assay; assay type: cell-based; settings: mcf7, 48 h
MCF7 [8] = test: Antiproliferative activity against human MCF7 cells assessed as reduction in cell viability preincubated for 5 hrs followed by compound washout and subsequent 3 mW/cm2 UVA irradiation measured 48 hrs post irradiation by CCK8 assay; assay type: functional, cell-based; settings: MCF7, light or radiation study
H22 [9] = test: Induction of immunogenic cell death in mouse H22 cells assessed as […] in extracellular ATP level at 250 nM incubated for 5 hrs followed by compound washout and subsequent 2 mW/cm2 UVA irradiation measured 5 hrs post irradiation by chemiluminescence-based assay; assay type: functional
H22 [10] = test: Induction of immunogenic cell death in mouse H22 cells assessed as extracellular ATP level at 250 nM preincubated for 5 hrs followed by compound washout and subsequent 2 mW/cm2 UVA irradiation for 20 mins measured 2 hrs post irradiation by chemiluminescence-based assay; assay type: functional
H22 [11] = test: Antitumor activity against mouse H22 cells allografted in immunocompetent Balb/c mouse assessed as decrease in lump formation at vaccination site at 250 nM incubated with cells for 5 hrs prior to 20 mins 2 mW/cm2 UVA irradiation post compound washout followed by vaccination and measured over 30 days; assay type: functional, cell-based
H22 [12] = test: (§1) Induction of immunogenic cell death in mouse H22 cells assessed as increase in intracellular calreticulin level at 60 to 250 nM preincubated for 5 hrs followed by compound washout and subsequent 2 mW/cm2 UVA irradiation for 20 mins measured 2 hrs post irradiation by flow cytometric analysis; assay type: functional, cell-based
H22 [13] = test: Induction of immunogenic cell death in mouse H22 cells assessed as extracellular HMGB1 level at 120 to 250 nM preincubated for 5 hrs followed by compound washout and subsequent 2 mW/cm2 UVA irradiation measured 2 hrs post irradiation by ELISA; assay type: functional
MCF7 [14] = test: Induction of reactive oxygen species generation in human MCF7 cells up to 200 nM preincubated for 5 hrs followed by compound washout and subsequent 3 mW/cm2 UVA irradiation measured 10 mins post irradiation by DCFH-DA probe based fluorescence microscopic analysis; assay type: functional, cell-based
H22 [15] = test: Dark toxicity in mouse H22 cells assessed as increase in intracellular calreticulin level at 60 to 250 nM measured after 5 hrs by flow cytometric analysis; assay type: cell-based; settings: h22, 5 h, 0.25 µM
H22 [16] = test: Antitumor activity against mouse H22 cells allografted in immunocompetent Balb/c mouse assessed as inhibition of tumour formation at 60 nM incubated with cells for 5 hrs prior to 20 mins 2 mW/cm2 UVA irradiation post compound washout followed by vaccination and measured over 20 days; assay type: functional, cell-based
H22 [17] = test: (§2) Antitumor activity against mouse H22 cells allografted in immunocompetent Balb/c mouse assessed as decrease in tumour formation at challenge site at 250 nM incubated with cells for 5 hrs followed by compound washout before 2 mW/cm2 UVA irradiation for 20 mins and followed by vaccination and subsequent H22 cells addition 10 days post vaccination and measured after 2 months; assay type: functional, cell-based
H22 [18] = test: Dark toxicity in mouse H22 cells assessed as increase in extracellular HMGB1 level at 120 to 250 nM incubated for 5 hrs by ELISA; assay type: cell-based; settings: h22, 5 h, 0.25 µM
H22 [19] = test: as §1, with “irradiation” for “irradiation for 20 mins”, “Hoechst staining based fluorescence microscopic” for “flow cytometric”; assay type: functional
H22 [20] = test: Antitumor activity against mouse H22 cells allografted in immunocompetent Balb/c mouse assessed as inhibition of tumour formation at 60 nM incubated with cells for 5 hrs prior to 20 mins 2 mW/cm2 UVA irradiation post compound washout followed by vaccination and measured over 10 days; assay type: functional, cell-based
[21] = Toxicity in immunocompetent BALB/c mouse allografted with mouse H22 cells assessed as change in body weight at 250 nM incubated with cells for 5 hrs followed by compound washout before 2 mW/cm2 UVA irradiation for 20 mins and followed by vaccination and subsequent H22 cells addition 10 days post vaccination and measured over 30 days; settings: 0.25 µM
H22 [22] = test: as §2, with “on day 25” for “after 2 months”; assay type: functional, cell-based
H22 [23] = test: as §2, with “weeks” for “months”; assay type: functional, cell-based
H22 [24] = test: Antitumor activity against mouse H22 cells allografted in immunocompetent Balb/c mouse assessed as inhibition of tumour formation at 250 nM incubated with cells for 5 hrs prior to 20 mins 2 mW/cm2 UVA irradiation post compound washout followed by vaccination and measured within 5 days; assay type: functional, cell-based
H22 [25] = test: Induction of immunogenic cell death in mouse H22 cells assessed as increase in extracellular HMGB1 level at 2 uM incubated for 5 hrs by ELISA; assay type: functional, cell-based
H22 [26] = test: Antitumor activity against mouse H22 cells allografted in immunocompetent Balb/c mouse assessed as decrease in lump formation at challenge site at 2 uM incubated with cells for 5 hrs followed by compound washout prior to vaccination and subsequent H22 cells addition 10 days post vaccination and measured over 30 days; assay type: functional, cell-based
H22 [27] = test: Induction of immunogenic cell death in mouse H22 cells assessed as increase in calreticulin level in cell surface at 2 uM incubated for 5 hrs by Hoechst staining based fluorescence microscopic analysis; assay type: functional
A-375 [28] = test: Cytotoxicity against human A375 cells assessed as reduction in cell viability preincubated for 5 hrs followed by compound washout and measured after 48 hrs by CCK8 assay; assay type: functional, cell-based
MCF7 [29] = test: Cytotoxicity against human MCF7 cells assessed as reduction in cell viability preincubated for 5 hrs followed by compound washout and measured after 48 hrs by CCK8 assay; assay type: functional, cell-based
H22 [30] = test: Induction of immunogenic cell death in mouse H22 cells assessed as extracellular ATP level at 2 uM measured after 24 hrs by chemiluminescence-based assay; assay type: functional
Bel-7402 [31] = test: Cytotoxicity against human Bel7402 cells assessed as reduction in cell viability preincubated for 5 hrs followed by compound washout and measured after 48 hrs by CCK8 assay; assay type: functional, cell-based
H22 [32] = test: Induction of immunogenic cell death in mouse H22 cells assessed as increase in intracellular calreticulin level at 2 uM measured after 5 hrs by flow cytometric analysis; assay type: functional, cell-based
[33] = Dark toxicity against mouse H22 cells assessed as reduction in cell viability preincubated for 5 hrs followed by compound washout and measured after 48 hrs by CCK8 assay; assay type: cell-based
H22 [34] = test: Induction of immunogenic cell death in mouse H22 cells assessed as increase in extracellular ATP level at 2 uM measured after 5 hrs by chemiluminescence-based assay; assay type: functional
H22 [35] = test: Antitumor activity against mouse H22 cells allografted in immunocompetent Balb/c mouse assessed as decrease in lump formation in vaccination site at 2 uM incubated with cells for 5 hrs prior to 20 mins 2 mW/cm2 UVA irradiation post compound washout followed by vaccination and measured over 30 days; assay type: functional, cell-based
H22 [36] = test: Antitumor activity against mouse H22 cells allografted in immunocompetent Balb/c mouse assessed as inhibition of tumour formation at 2 uM incubated with cells for 5 hrs prior to 20 mins 2 mW/cm2 UVA irradiation post compound washout followed by vaccination and measured within 5 days; assay type: functional, cell-based

## Cc1cn([C@H]2C[C@H](n3cc(CNC(=O)CCCCCOc4ccc5c(c4)-c4nc6ccccc6nc4[C@@H]4C(C)(C)CCC[C@]54C)nn3)[C@@H](CO)O2)c(=O)[nH]c1=O
Bel-7402 [1]
  pIC50: 6.60

## C=CC1=C(C)c2cc3[nH]c(cc4nc(cc5[nH]c(cc1n2)c(C)c5CCC(=O)O)C(CCC(=O)O)=C4C)c(C)c3C=C [PROTOPORPHYRIN]
Bel-7402 [1]
  pIC50: 6.51

## Cc1cn([C@H]2C[C@H](n3cc(CNC(=O)CCCCCOc4ccc5c(c4)-c4nc6cc7ccccc7cc6nc4[C@@H]4C(C)(C)CCC[C@]54C)nn3)[C@@H](CO)O2)c(=O)[nH]c1=O
A-375 [2]
  Activity: Non-Toxic
Bel-7402 [3]
  Activity: Non-Toxic
H22 [4]
  Activity: Non-Toxic
H22 [5]
  pIC50: 7.49
A-375 [6]
  pIC50: 7.36
Bel-7402 [1]
  pIC50: 7.35
MCF7 [7]
  Activity: Non-Toxic
MCF7 [8]
  pIC50: 7.30

## Cc1cn([C@H]2C[C@H](n3cc(CNC(=O)CCCCCOc4ccc5c(c4)-c4nc6cc7ccccc7cc6nc4[C@H]4C(C)(C)CCC[C@]54C)nn3)[C@@H](CO)O2)c(=O)[nH]c1=O
A-375 [2]
  Activity: Non-Toxic
H22 [9]
  Activity: Active
H22 [10]
  Activity: 335 nM
H22 [11]
  Activity: Active
H22 [12]
  Activity: Active
Bel-7402 [3]
  Activity: Non-Toxic
H22 [4]
  Activity: Non-Toxic
H22 [13]
  Activity: 3 ng/mL
MCF7 [14]
  Activity: Active
H22 [15]
  Activity: Non-Toxic
H22 [5]
  pIC50: 7.54
H22 [16]
  inhibition: inactive
H22 [17]
  inhibition: Active
A-375 [6]
  pIC50: 7.60
H22 [18]
  Activity: Non-Toxic
Bel-7402 [1]
  pIC50: 7.58
H22 [19]
  Activity: Active
H22 [20]
  inhibition: inactive
MCF7 [7]
  Activity: Non-Toxic
[21]
  Activity: Non-Toxic
H22 [22]
  inhibition: Active
MCF7 [8]
  pIC50: 7.63
H22 [23]
  inhibition: Active
H22 [24]
  inhibition: Active

## O=C1c2c(O)ccc(O)c2C(=O)c2c(NCCNCCO)ccc(NCCNCCO)c21 [MITOXANTRONE]
H22 [25]
  Activity: inactive
H22 [26]
  inhibition: inactive
H22 [27]
  Activity: Active
A-375 [28]
  pIC50: 6.95
MCF7 [29]
  pIC50: 6.42
H22 [30]
  Activity: 9 nM
Bel-7402 [31]
  pIC50: 6.93
  IC90: 1300 nM
H22 [32]
  Activity: Active
[33]
  IC50 at 5 h: 187 nM
H22 [34]
  Activity: inactive
H22 [35]
  Activity: Active
H22 [36]
  inhibition: Active

From ChEMBL document CHEMBL4346685, “Naphthyl quinoxaline thymidine conjugate is a potent anticancer agent post UVA activation and elicits marked inhibition of tumor growth through vaccination” (Eur J Med Chem, 2019)
